From patent US10576064B2, “Spiro[3H-indole-3,2′-pyrrolidin]-2(1H)-one compounds and derivatives as MDM2-P53 inhibitors” (Boehringer Ingelheim International GmbH, priority 2014, dated 2020)

Columns and labels:
[1] = tested on: p53 wild-type vs. p53 mutant cell lines; conditions: Carol et al. 2013; cited from earlier work
[2] = tested on: solid tumor xenograft models; conditions: Carol et al. 2013; cited from earlier work
[3] = tested on: acute lymphoblastic leukemia (ALL) xenograft models with mixed-lineage leukemia (MLL) rearrangement; conditions: Carol et al. 2013; cited from earlier work
[4] = tested on: human acute myeloid leukemia (AML) and human prostate tumor xenograft models harboring p53 wild-type; conditions: Tovar et al. 2013; cited from earlier work
[5] = biological target: p53-MDM2 interaction (GST-MDM2 protein aa 23-117 / biotinylated p53 wt peptide) (Homo sapiens (Human), UniProt Q00987); assay: MDM2-p53 Inhibition AlphaScreen; format: biochemical; conditions: 20 nM GST-MDM2 (aa 23-117), 20 nM biotinylated p53 wt peptide
From the text: MDM2-p53 Inhibition AlphaScreen

In the case of `CCOc1cc(C(C)(C)C)ccc1C1=N[C@@](C)(c2ccc(Cl)cc2)[C@@](C)(c2ccc(Cl)cc2)N1C(=O)N1CCN(CCCS(C)(=O)=O)CC1` [RG-7112], the “cytotoxic activity, median IC50” value [1] is given as “lower median IC50 values for p53 wild-type vs. p53 mutant cell lines”, the tumor growth inhibition [2] is given as “induced tumor growth inhibition” and the “efficacy in xenograft models” value [3] is given as “particularly efficacious”.

For `CCOc1cc(C(C)(C)C)ccc1C1=N[C@@](C)(c2ccc(Cl)cc2)[C@@](C)(c2ccc(Cl)cc2)N1C(=O)N1CCN(CCCS(C)(=O)=O)CC1` [RG7112], the “antiproliferative and proapoptotic activity” value [4] is given as “antiproliferative and proapoptotic activity of RG7112 has been observed”.

For `O=C(O)c1ccc(N2C[C@H]3[C@@H](C2=O)[C@H](c2cccc(Cl)c2F)[C@]2(C(=O)Nc4cc(Cl)ccc42)N3CC2CC2)cc1` [Compound I-217], the IC50 [5] was 5 nM.

`CCOc1cccc(CN2[C@H]3CCN(c4ccc(C(=O)O)cc4)C(=O)[C@H]3[C@H](c3cccc(Cl)c3F)[C@]23C(=O)Nc2cc(Cl)ccc23)c1` [Compound I-185] gave an IC50 [5] of 3 nM.

For `O=C1NCC[C@H]2[C@@H]1[C@H](c1cccc(Cl)c1F)[C@]1(C(=O)Nc3cc(Cl)ccc31)N2CC1CC1` [Compound I-2], the IC50 [5] was 112 nM.

For `COC(=O)c1ccc(N2CC[C@H]3[C@@H](C2=O)[C@H](c2cccc(Cl)c2F)[C@]2(C(=O)Nc4cc(Cl)ccc42)N3CC2CC2C)cc1` (some centres unmarked) [Compound I-69], the IC50 [5] was 447 nM.
